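Compound exposure: 48 hours, 5 concentrations, 96-well plates. GI50: concentration for 50% inhibition of growth. The concentration for full growth arrest is given as TGI.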

One assay concerns HS 578T breast. The assay is described as follows: NCI anticancer screen, dose series, 48 h.
`CC(=O)[C@@]12O[C@@H]1CC1C3CCC4=CC(O)CCC4(C)C3CCC12C` (some centres not stated): the GI50 is 27.9 µM and the TGI came to 90.2 µM.

Regarding `COc1ccc(-c2nnc(COc3ccc(C(=O)/C=C/c4ccco4)cc3)o2)cc1`, the GI50 is 7.43 µM and the TGI amounted to 43.1 µM.

In turn, `Cc1ccccc1S(=O)(=O)OC1NS(=O)(=O)c2ccccc21` (configuration not stated) displayed a TGI above 100 µM.

As for `COc1cc2c3c(n(C)c(=O)c2cc1OC)-c1cc2c(cc1/C3=C\CCCN)OCO2`, the GI50 is 24.7 µM and the TGI stood at 87.6 µM.

Molecule `Cc1ccc(S(=O)(=O)Nc2ccccc2C(=O)c2ccc(C)c(C)c2)cc1` showed a TGI above 100 µM.

The molecule `OC(c1nc2ccccc2[nH]1)C(O)C(O)C(O)c1nc2ccccc2[nH]1` (configuration not stated) gave a TGI above 100 µM.

In the case of `COc1cc2c3c(n(C)c(=O)c2cc1OC)-c1cc2c(cc1/C3=C\CCN)OCO2`, the GI50 is 2.01 µM.

The subject of another assay is IGROV1 ovarian. Briefly: NCI anticancer screen, dose series, 48 h.
As for `CN(C(=O)c1ccc(C(F)(F)F)cc1)c1ccc(Oc2ccc3c(c2)cc(C(=O)N2CCN(Cc4ccc(OC(F)F)cc4)CC2)n3C)nc1`, the GI50 is above 100 µM and the TGI was above 100 µM.

With `Cc1cc(-c2ccc3nc(C4CCOCC4)n(CCOC(F)(F)F)c3c2)cn(C)c1=O`, the TGI amounted to 6.91 µM.

With `COc1cc(/C=C2\CN(S(=O)(=O)c3ccccc3)C/C(=C\c3cc(CN4CCCC4)c(O)c(OC)c3)C2=O)cc(CN2CCCC2)c1O`, the GI50 was 1.54 µM and the TGI is 3.29 µM.

For the molecule `CN1CCN(CCCn2c(=O)c3sc4ncccc4c3n3nnc(-c4ccccc4)c23)CC1`, the GI50 was 5.93 µM and the TGI worked out at 13.8 µM.

In turn, `NC1(C(=O)OCc2ccccc2)CCCC1` displayed a TGI of 38.8 µM.

In the case of `O=C(/C=C/c1ccc(Cl)cc1)c1ccc(Nc2ccnc3cc(Cl)ccc23)cc1`, the GI50 was 48.6 µM and the TGI was above 100 µM.

Take `CCCCCCCC(=O)SCC/C=C/[C@@H]1CC(=O)NCc2cc(ccn2)C2=N[C@@](C)(CS2)C(=O)N[C@@H](C(C)C)C(=O)O1`: the GI50 is 0.00956 µM and the TGI is 0.132 µM.

For the molecule `COc1cc(C2c3cc4c(cc3OC(C)(O)C2C)OCO4)cc(OC)c1OC` (configuration not stated), the TGI was found to be 76.2 µM.

With `N#CC(C#N)=CNC(N)=S`, the TGI was above 100 µM.

`C[C@@H]1CCC2[C@@H](C)[C@@H](OCC(CO[C@H]3OC4O[C@@]5(C)CC[C@H]6[C@H](C)CCC([C@H]3C)[C@@]46OO5)OC(=O)CCC(=O)O)OC3O[C@@]4(C)CC[C@@H]1[C@]32OO4` (some centres not stated): the GI50 is 12.6 µM and the TGI is above 69 µM.

As to `COc1cc(OC)cc(-c2cc(=O)c3c(OC)c(OC)c(OC)c(OC)c3o2)c1`, the TGI is above 100 µM.

With `O=C1OC(O)[C@@H]2[C@H]1[C@H]1CC[C@@H]2O1` (some centres not stated), the GI50 is above 100 µM and the TGI is above 100 µM.

On to `CC(=O)[C@@]12O[C@@H]1CC1C3CCC4=CC(O)CCC4(C)C3CCC12C` (some centres not stated), for which the GI50 was 31.8 µM and the TGI is above 100 µM.

For `CCN1CCN(c2nc(C)cc(N(CCNc3ccnc4cc(Cl)ccc34)Cc3ccc4c(c3)OCO4)n2)CC1`, the GI50 is 2.36 µM and the TGI worked out at 7.78 µM.

`O=C(/C=C\c1ccc(Cl)c(Cl)c1)c1ccc(Cl)cc1Cl` showed a TGI of 49.8 µM.

In the case of `COc1ccc(-c2nnc(COc3ccc(C(=O)/C=C/c4ccco4)cc3)o2)cc1`, the GI50 is 2.08 µM and the TGI was found to be 4.38 µM.

Take `Cc1ccccc1S(=O)(=O)OC1NS(=O)(=O)c2ccccc21` (configuration not stated): the TGI is above 100 µM.

On to `COc1cc2c3c(n(C)c(=O)c2cc1OC)-c1cc2c(cc1/C3=C\CCCN)OCO2`, for which the GI50 was 2.24 µM and the TGI is 32.4 µM.

Molecule `Cc1ccc(S(=O)(=O)Nc2ccccc2C(=O)c2ccc(C)c(C)c2)cc1` came in with a TGI above 100 µM.

The molecule `OC(c1nc2ccccc2[nH]1)C(O)C(O)C(O)c1nc2ccccc2[nH]1` (configuration not stated) showed a TGI above 100 µM.

Regarding `COc1cc2c3c(n(C)c(=O)c2cc1OC)-c1cc2c(cc1/C3=C\CCN)OCO2`, the GI50 was 0.882 µM and the TGI was above 53.6 µM.

The test system of the next assay is SK-MEL-5 melanoma. The assay is described as follows: NCI anticancer screen, dose series, 48 h.
As for `CN(C(=O)c1ccc(C(F)(F)F)cc1)c1ccc(Oc2ccc3c(c2)cc(C(=O)N2CCN(Cc4ccc(OC(F)F)cc4)CC2)n3C)nc1`, the GI50 is below 0.0213 µM and the TGI turned out to be 4.82 µM.

In the case of `Cc1cc(-c2ccc3nc(C4CCOCC4)n(CCOC(F)(F)F)c3c2)cn(C)c1=O`, the TGI turned out to be 1.27 µM.

As for `CN1CCN(CCCn2c(=O)c3sc4ncccc4c3n3nnc(-c4ccccc4)c23)CC1`, the GI50 is 7.21 µM and the TGI was determined as 13.8 µM.

On to `NC1(C(=O)OCc2ccccc2)CCCC1`, for which the TGI came out at 37.4 µM.

Molecule `O=C(/C=C/c1ccc(Cl)cc1)c1ccc(Nc2ccnc3cc(Cl)ccc23)cc1` returned a TGI above 53.8 µM.

For the molecule `CCCCCCCC(=O)SCC/C=C/[C@@H]1CC(=O)NCc2cc(ccn2)C2=N[C@@](C)(CS2)C(=O)N[C@@H](C(C)C)C(=O)O1`, the GI50 was 0.0117 µM and the TGI stood at 0.051 µM.

`COc1cc(C2c3cc4c(cc3OC(C)(O)C2C)OCO4)cc(OC)c1OC` (configuration not stated) registered a TGI of 2.36 µM.

Regarding `N#CC(C#N)=CNC(N)=S`, the TGI is above 100 µM.

In the case of `C[C@@H]1CCC2[C@@H](C)[C@@H](OCC(CO[C@H]3OC4O[C@@]5(C)CC[C@H]6[C@H](C)CCC([C@H]3C)[C@@]46OO5)OC(=O)CCC(=O)O)OC3O[C@@]4(C)CC[C@@H]1[C@]32OO4` (some centres not stated), the GI50 is 0.147 µM and the TGI was determined as 17.5 µM.

For `COc1cc(OC)cc(-c2cc(=O)c3c(OC)c(OC)c(OC)c(OC)c3o2)c1`, the TGI was 84 µM.

On to `O=C1OC(O)[C@@H]2[C@H]1[C@H]1CC[C@@H]2O1` (some centres not stated), for which the GI50 was 68.2 µM and the TGI is above 100 µM.

`O=C1c2cc3c(cc2-c2c1c1ccc(F)cc1c(=O)n2CCCNCCO)OCO3`: the GI50 is 0.109 µM and the TGI came to 0.232 µM.

For the molecule `C=C1C(=O)O[C@H]2[C@H]1CC/C(COC(=O)c1c[nH]c3ccccc13)=C\CC[C@@]1(C)O[C@@H]21`, the GI50 was 0.204 µM and the TGI is 0.499 µM.

Take `CC(=O)[C@@]12O[C@@H]1CC1C3CCC4=CC(O)CCC4(C)C3CCC12C` (some centres not stated): the GI50 is above 100 µM and the TGI was above 100 µM.

With `CCN1CCN(c2nc(C)cc(N(CCNc3ccnc4cc(Cl)ccc34)Cc3ccc4c(c3)OCO4)n2)CC1`, the GI50 is 1.74 µM and the TGI was found to be 3.17 µM.

(Values after PubChem BioAssay (NCI).)
